Tests used:
Details in all cases: 48 h
NOMO1 = experiment: AUC of viability dose-response curve (% viability x log10 dose units); higher = less sensitive
Procedure, shortened: (§1)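 Over 48 h at 37°C, leukemia cells in 1536-well plates (500 or 1000 cells/well), adapted to each medium, received library compounds in DMSO at 11 threefold doses from 47 μM to 0.79 nM. CellTiter-Glo One luminescence, normalised per plate to DMSO and cell-free wells, was fitted by a four-parameter log-logistic function of log10 dose. The area under the curve was then integrated by trapezoidal rule, after scaling curves above full viability and removing those that failed quality control.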

P12-Ichikawa = experiment: as above
Procedure, shortened: as §1

SEM cells [1] = experiment: as above
Procedure, shortened: as §1

SEM cells [2] = experiment: cell viability relative to DMSO control; higher = less cytotoxic
Procedure, shortened: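 In 1536-well plates, 5 μl of leukemia cells were seeded per well: 500 cells/well for NOMO1 or SEM and 1000 cells/well for P12-Ichikawa. Each line had first been adapted for at least four passages in each medium. Library compounds in DMSO were pin-dosed at 11 threefold concentrations between 47 μM and 0.79 nM, and CellTiter-Glo One luminescence was read after 48 h at 37°C. Viability is a per-plate percentage relative to DMSO wells, with cell-free wells as background.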

[3] = RPMI 5 mM glucose + 10% dialyzed FBS
[4] = HPLM + 10% dialyzed FBS, 0.000781 µM
[5] = HPLM + 10% dialyzed FBS, 0.00234 µM
[6] = HPLM + 10% dialyzed FBS, 0.00702 µM
[7] = HPLM + 10% dialyzed FBS, 0.0211 µM
[8] = HPLM + 10% dialyzed FBS, 0.0632 µM
[9] = HPLM + 10% dialyzed FBS, 0.19 µM
[10] = HPLM + 10% dialyzed FBS, 0.569 µM
[11] = HPLM + 10% dialyzed FBS, 1.71 µM
[12] = HPLM + 10% dialyzed FBS, 5.12 µM
[13] = HPLM + 10% dialyzed FBS, 15.4 µM
[14] = HPLM + 10% dialyzed FBS, 46.1 µM

SMILES | AUC of viability dose-response curve (NOMO1; HPLM + 10% dialyzed FBS) | AUC of viability dose-response curve (NOMO1; RPMI 5 mM glucose + 10% FBS) | AUC of viability dose-response curve (NOMO1; [3]) | AUC of viability dose-response curve (P12-Ichikawa; HPLM + 10% dialyzed FBS) | AUC of viability dose-response curve (P12-Ichikawa; RPMI 5 mM glucose + 10% FBS) | AUC of viability dose-response curve (P12-Ichikawa; [3]) | AUC of viability dose-response curve (SEM cells [1]; HPLM + 10% dialyzed FBS) | AUC of viability dose-response curve (SEM cells [1]; RPMI 5 mM glucose + 10% FBS) | AUC of viability dose-response curve (SEM cells [1]; [3]) | cell viability (SEM cells [2]; [4]) [%] | cell viability (SEM cells [2]; [5]) [%] | cell viability (SEM cells [2]; [6]) [%] | cell viability (SEM cells [2]; [7]) [%] | cell viability (SEM cells [2]; [8]) [%] | cell viability (SEM cells [2]; [9]) [%] | cell viability (SEM cells [2]; [10]) [%] | cell viability (SEM cells [2]; [11]) [%] | cell viability (SEM cells [2]; [12]) [%] | cell viability (SEM cells [2]; [13]) [%] | cell viability (SEM cells [2]; [14]) [%] | cell viability (SEM cells [2]; RPMI 5 mM glucose + 10% FBS, 0.000781 µM) [%] | cell viability (SEM cells [2]; RPMI 5 mM glucose + 10% FBS, 0.00234 µM) [%] | cell viability (SEM cells [2]; RPMI 5 mM glucose + 10% FBS, 0.00702 µM) [%] | cell viability (SEM cells [2]; RPMI 5 mM glucose + 10% FBS, 0.0211 µM) [%] | cell viability (SEM cells [2]; RPMI 5 mM glucose + 10% FBS, 0.0632 µM) [%] | cell viability (SEM cells [2]; RPMI 5 mM glucose + 10% FBS, 0.19 µM) [%] | cell viability (SEM cells [2]; RPMI 5 mM glucose + 10% FBS, 0.569 µM) [%] | cell viability (SEM cells [2]; RPMI 5 mM glucose + 10% FBS, 1.71 µM) [%] | cell viability (SEM cells [2]; RPMI 5 mM glucose + 10% FBS, 5.12 µM) [%] | cell viability (SEM cells [2]; RPMI 5 mM glucose + 10% FBS, 15.4 µM) [%] | cell viability (SEM cells [2]; RPMI 5 mM glucose + 10% FBS, 46.1 µM) [%]
Cc1ncc(-c2ccnc(Nc3ccc([S+](C)(=O)[O-])cc3)n2)n1C(C)C | 400 | 396 | 389 | 437 | 412 | 416 | 367 | 357 | 380 |  |  |  |  |  |  |  |  |  |  |  |  |  |  |  |  |  |  |  |  |  | 
Clc1ccc2ncc(-c3cccc(NC4CNC4)n3)n2c1 | 433 | 455 | 443 | 441 | 439 | 443 | 412 | 427 | 411 | 120 | 121 | 125 | 125 | 136 | 122 | 115 | 113 | 77.5 | 67.1 | 45.8 | 119 | 122 | 131 | 121 | 147 | 141 | 119 | 115 | 105 | 76.9 | 47.6
Cn1ccc2cc3c(cc21)CCN3C(=O)Nc1cccnc1 | 460 | 451 | 466 | 464 | 462 | 463 | 464 | 461 | 461 | 100 | 113 | 132 | 116 | 123 | 158 | 140 | 127 | 125 | 137 | 59.8 |  |  |  |  |  |  |  |  |  |  | 
O[C@@H]1[C@@H](O)[C@H](O[C@@H]([C@H]1O)C(O)=O)OC2=C(O)C(=C3C(=O)\C=C(/OC3=C2)C4=CC=CC=C4)O | 445 | 427 | 460 | 447 | 448 | 460 | 446 | 409 | 425 |  |  |  |  |  |  |  |  |  |  |  |  |  |  |  |  |  |  |  |  |  | 
CCOC(=O)[C@H](CCc1ccccc1)N[C@H]1CS[C@H](c2cccs2)CN(CC(=O)O)C1=O.Cl | 384 | 408 | 395 | 400 | 401 | 421 | 461 | 437 | 468 |  |  |  |  |  |  |  |  |  |  |  |  |  |  |  |  |  |  |  |  |  | 
